Numbering of substitutions follows the chain as printed. Converted amounts (≈) assume the structure as drawn.
How the values were obtained:
IDH2 R140Q = target: T1, IDH2 R140Q (Homo sapiens, UniProt P48735, R140Q); test: Phase 1/2 clinical study AG221-C-001, pharmacodynamic response (2-HG plasma levels), R140Q subjects; assay type: in vivo; details: most subjects with R140Q mutation, all doses, by Day 1 of Cycle 2
T1 construct: endogenous in cells; host or cells: malignant haematologic cells of human subjects (in vivo; 2-HG measured in plasma)
T1 sequence (P48735 40-452 R140Q): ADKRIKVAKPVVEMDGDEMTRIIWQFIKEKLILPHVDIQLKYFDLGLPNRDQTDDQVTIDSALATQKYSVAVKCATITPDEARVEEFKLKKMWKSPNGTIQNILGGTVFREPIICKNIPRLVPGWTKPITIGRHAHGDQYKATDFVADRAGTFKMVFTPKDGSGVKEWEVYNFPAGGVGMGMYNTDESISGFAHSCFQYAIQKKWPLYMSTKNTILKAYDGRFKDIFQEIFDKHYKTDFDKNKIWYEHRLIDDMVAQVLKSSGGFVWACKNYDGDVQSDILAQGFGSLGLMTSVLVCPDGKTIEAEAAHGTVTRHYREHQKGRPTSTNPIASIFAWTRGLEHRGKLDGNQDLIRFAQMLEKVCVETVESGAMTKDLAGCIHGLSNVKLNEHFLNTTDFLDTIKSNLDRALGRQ
Text: (§1) Three days prior to the start of daily dosing of AG-221 (Day −3), the first 3 subjects enrolled in each cohort in the dose escalation phase and the first 15 subjects enrolled in each arm of Part 1 Expansion will receive a single dose of AG-221 in clinic and have serial blood and urine samples obtained for determination of blood and urine concentrations of AG-221, its metabolite AGI-16903, 2-HG, and α-KG. A full 72-hour PK/PD profile will be conducted: subjects will be required to remain at the study site for 10 hours on Day −3 and return on Days −2, −1, and 1 for 24-, 48-, and 72-hour samples, respectively. During the in-clinic period on Day −3, clinical observation and serial 12-lead ECGs and vital signs assessments will be conducted.
(§2) Subjects in the dose escalation phase and Part 1 Expansion also will undergo PK/PD assessments over a 10-hour period on C1D15, C2D1, and C4D1. […] These subjects will have urine collected for PK/PD evaluation at screening; prior to dosing on C1D15, C2D1 and Day 1 of all cycles thereafter; and at the End of Treatment visit. Available bone marrow biopsy samples also will be assessed for 2-HG and α-KG levels.
(§3) Serial blood sampling for determination of concentration-time profiles of COMPOUND 1 and its metabolite (6-(6-(trifluoromethyl)pyridin-2-yl)-N2-(2-(trifluoromethyl)pyridin-4-yl)-1,3,5-triazine-2,4-diamine). […]

[1] = Phase 1/2 clinical study AG221-C-001, safety; assay type: in vivo, human; details: 100 mg
Text: Toxicity severity will be graded according to the National Cancer Institute Common Terminology Criteria for Adverse Events (NCI CTCAE) Version 4.03. A DLT is defined as outlined below.
Monitoring of AEs, including determination of DLTs, serious adverse events (SAEs), and AEs leading to discontinuation; safety laboratory parameters; physical examination findings; vital signs; 12-lead ECGs; LVEF; and ECOG PS.
The severity of AEs will be assessed by the NCI CTCAE, Version 4.03.

[2] = tested on: advanced hematologic malignancies with an IDH2 mutation; test: Phase 1/2 clinical study AG221-C-001, clinical activity (overall response rate); assay type: in vivo, human; details: 44 subjects treated at 100 mg QD, preliminary efficacy data
Text: Response to treatment and treatment decisions in all subjects will be determined by the Investigators based on modified International Working Group (IWG) response criteriaor other appropriate response criteria for the malignancy under study.
Overall response rate (ORR), the primary efficacy endpoint, is defined as the rate of responders including complete remission (CR), CR with incomplete platelet recovery (CRp), marrow CR (mCR) (morphologic leukemia-free state [MLFS] for subjects with AML), CR with incomplete hematologic recovery (CRi), and partial remission (PR). Other measures of clinical activity including complete remission rate (CRR), duration of remission/response, event-free survival, overall survival, and time to remission/response will be summarized.
For Phase 1 Dose Escalation/Part 1 Expansion, the efficacy analysis of response rates as assessed by the site Investigators using modified International Working Group (IWG) response criteria will be conducted in Full Analysis Set for each dose level, expansion arm, and overall if appropriate.

IDH2 R172K = target: T2, IDH2 R172K (Homo sapiens, UniProt P48735, R172K); test: Phase 1/2 clinical study AG221-C-001, pharmacodynamic response (2-HG), R172K subjects; assay type: in vivo; details: subjects with R172K mutation
T2 construct: endogenous in cells; host or cells: malignant haematologic cells of human subjects (in vivo; 2-HG measured in blood)
T2 sequence (P48735 40-452 R172K): T1 sequence (P48735 40-452 R140Q) with Q101R, R133K
Text: as §1, §2, §3

[3] = solubility in fasted state simulated intestinal fluid (FASSIF); assay type: physicochemical; details: pH 6.1, at 4 hours

inhibition of 2-HG plasma levels (IDH2 R140Q) | solubility at 4 h [3] [µg/mL] | Structure (SMILES) | safety profile, including ≥Grade 3 [1] | overall response rate [2] [%] | inhibition of 2-HG and exposure, dependence on dose (IDH2 R172K)
up to 98% |  | CC(C)(O)CNc1nc(Nc2ccnc(C(F)(F)F)c2)nc(-c2cccc(C(F)(F)F)n2)n1 [COMPOUND 1, 2-methyl-1-[(4-[6-(trifluoromethyl)pyridin-2-yl]-6-{[2-(trifluoromethyl)pyridin-4-yl]amino}-1,3,5-triazin-2-yl)amino]propan-2-ol] | consistent with that of lower doses | 36.4 | Increasing dose is associated with higher exposure and inhibition of 2-HG
 | ~18 (≈ 30.9 µM) | N#Cc1ccnc(N2C(=O)CC[C@H]2C(=O)N(c2cncc(F)c2)[C@H](C(=O)NC2CC(F)(F)C2)c2ccccc2Cl)c1 [Form 2, (S)—N—((S)-1-(2-chlorophenyl)-2-((3,3-difluorocyclobutyl)amino)-2-oxoethyl)-1-(4-cyanopyridin-2-yl)-N-(5-fluoropyridin-3-yl)-5-oxopyrrolidine-2-carboxamide] |  |  | 

From patent US20200261434A1, “IDH1 INHIBITORS FOR THE TREATMENT OF HAEMATOLOGICAL MALIGNANCIES AND SOLID TUMORS” (Agios Pharmaceuticals, Inc., priority 2016, published 2020)
